Experimental data published in US11312940B2, “Progenitor cells and methods for preparing and using the same” (University of Louisville Research Foundation, Inc., priority 2015, dated 2022).

Legend:
[1] = test system: Sca-1+/Lin-/CD45- cells (VSELs); test: In vivo BrdU incorporation into BM VSELs; parameters: species or system mouse; details: for BrdU incorporation response of Sca-1+/Lin-/CD45- cells (ranking): 10-day administration
Procedure: (§1) Hormone treatment was performed for 10 days.
(§2) All mAbs were added at saturating concentrations, and the cells were incubated for 30 minutes on ice, washed twice, and then resuspended for sorting in cell-sorting medium containing 1× Hank's Balanced Salt Solution without phenol red (GIBCO™, a division of Thermo Fisher Scientific Inc., Waltham, Mass.), 2% heat-inactivated fetal calf serum (GIBCO™), 10 mM HEPES buffer (GIBCO™), and 30 U/mL gentamicin (GIBCO™) at a concentration of 5×10^6 cells/mL. Sca-1^+/Lin^−/CD45^− cells (VSELs) and Sca-1^+/Lin^−/CD45^+ cells (HSCs) were isolated according to the gating and sorting strategy described in Zuba-Surma & Ratajczak, 2010 and Suszynska et al, 2014b. Proliferation events in BM-derived VSEL and HSC populations were examined by BrdU incorporation followed by flow cytometry.
(§3) Adult C57BL/6 mice (4-8 weeks old; Jackson Laboratory) were intraperitoneally (i.p.) were injected daily with 1 mg of BrdU solution to evaluate whether SexHs affect proliferation of stem cells, and the final injection of BrdU was performed 1 hour before sacrificing the animals (see Grymula et al, 2014). […] Samples were analyzed with a Navios flow cytometer (Beckman Coulter).

[2] = test system: Sca-1+/Lin-/CD45+ cells (HSPCs); test: In vivo BrdU incorporation into BM HSPCs; parameters: species or system mouse
Procedure: as §1, §2, §3

BM VSELs = test: Total number of BM VSELs by FACS after SexH administration; assay type: in vivo, mouse; details: 10-day administration; for increase in total number of VSELs/10^6 BMMNCs (ranking): female mice; for increase in total number of VSELs/10^6 BMMNCs: male BM
Procedure: as §1, §2

BM HSPCs = test: Total number of BM HSPCs by FACS after SexH administration; assay type: in vivo, mouse; details: male and female mice, 10-day administration
Procedure: as §1, §2

[3] = test system: sublethally irradiated mice; test: Recovery of PB counts in sublethally irradiated mice; assay type: in vivo, mouse; details: 650 cGy, injections for 10 days
Procedure: Fifty microliters of PB was taken from the retro-orbital plexus of the mice and collected into microvette EDTA-coated tubes (Sarstedt AG & Co., Nümbrecht, Germany). Samples were run within 2 hours of collection on a HEMAVET® 950 hematology analyzer (Drew Scientific Inc., Oxford, Conn.) as described in Borkowska et al., 2014.
Blood was collected on days 0, 3, 7, 14, 21, and 28, and white blood cell (WBC), platelet, red blood cells (RBC), and hematocrit were measured on a HEMAVET® instrument (HV950FS; Drew Scientific Inc.) as described in Borkowska et al, 2014. Experiments were performed twice (each time, n=5).

Row | Molecule | BrdU incorporation response of Sca-1+/Lin-/CD45- cells (ranking) ([1]; female and male cells) | increase in percentage of BrdU+ Sca-1+/Lin-/CD45+ cells (ranking) ([2]; 10-day administration) | increase in total number of VSELs/10^6 BMMNCs (ranking) (BM VSELs) | increase in total number of VSELs/10^6 BMMNCs (BM VSELs) | increase in BM HSPCs/10^6 BMMNCs (ranking) (BM HSPCs) | leucocyte counts [3] | BrdU incorporation in Sca-1+/Lin-/CD45- VSELs ([1]; ovariectomized female mice) | BrdU incorporation into Sca1+/Lin-/CD45+ HSPCs ([2]; ovariectomized female mice) | BrdU incorporation response of Sca-1+/Lin-/CD45- cells (ranking) ([1]; female cells)
1 | C#C[C@]1(O)CC[C@H]2[C@@H]3CCC4=Cc5oncc5C[C@]4(C)[C@H]3CC[C@@]21C [danazol] | highest response | highest increases | most effective | about 2.5 fold | highest stimulatory effect | statistically significant increase | – | – | –
2 | C[C@]12CC[C@@H]3c4ccc(O)cc4CC[C@H]3[C@@H]1CC[C@@H]2O [estrogen, estradiol] | – | – | – | about 2.5 fold | – | – | – | – | –
3 | CC(=O)[C@H]1CC[C@H]2[C@@H]3CCC4=CC(=O)CC[C@]4(C)[C@H]3CC[C@]12C [progesterone] | – | – | – | – | – | – | enhanced BrdU incorporation | small increase in BrdU incorporation | –
4 | prolactin (protein, UniProt P01236 29-227, looked up, pituitary sex hormone, purchased from ProSpec) Prolactin: LPICPGGAARCQVTLRDLFDRAVVLSHYIHNLSSEMFSEFDKRYTHGRGFITKAINSCHTSSLATPEDKEQAQQMNQKDFLSLIVSILRSWNEPLYHLVTEVRGMQEAPEAILSKAVEIEEQTKRLLEGMELIVSQVHPETKENEIYPVWSGLPSLQMADEESRLSAYYNLLHCLRRDSHKIDNYLKLLKCRIIHNNNC | – | – | most effective | about 2.5 fold | – | statistically significant increase | – | – | highest response
